Laboratory results: ChEMBL document CHEMBL4765344, “Expanding the anticancer potential of 1,2,3-triazoles via simultaneously targeting Cyclooxygenase-2, 15-lipoxygenase and tumor-associated carbonic anhydrases” (Eur J Med Chem, 2020)
Values belong to the compound of their own block, whether it stands above or below them.

Legend:
[1] = target: T1, Prostaglandin G/H synthase 1 (Ovis aries, UniProt P05979); assay: Inhibition of ovine COX1 by colorimetric analysis
T1 sequence (P05979 whole entry): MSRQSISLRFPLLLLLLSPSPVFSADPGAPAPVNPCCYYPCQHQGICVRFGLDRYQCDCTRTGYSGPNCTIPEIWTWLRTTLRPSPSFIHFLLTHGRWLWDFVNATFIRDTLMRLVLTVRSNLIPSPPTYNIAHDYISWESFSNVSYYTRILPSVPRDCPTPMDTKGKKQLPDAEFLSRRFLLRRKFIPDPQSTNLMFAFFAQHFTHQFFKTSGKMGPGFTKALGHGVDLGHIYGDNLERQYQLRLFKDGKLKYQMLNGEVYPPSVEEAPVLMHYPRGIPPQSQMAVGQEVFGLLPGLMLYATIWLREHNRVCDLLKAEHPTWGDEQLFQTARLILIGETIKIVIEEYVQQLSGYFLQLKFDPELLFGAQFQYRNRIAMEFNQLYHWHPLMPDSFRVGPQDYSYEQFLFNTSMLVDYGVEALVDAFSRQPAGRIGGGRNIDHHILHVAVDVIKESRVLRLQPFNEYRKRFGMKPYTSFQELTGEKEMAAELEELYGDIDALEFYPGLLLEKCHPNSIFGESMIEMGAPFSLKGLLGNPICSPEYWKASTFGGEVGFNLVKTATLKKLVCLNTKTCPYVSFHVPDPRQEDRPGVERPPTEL

[2] = Inhibition of soya bean 15-LOX; set-up: species or system Glycine max
Carbonic anhydrase 1 = Carbonic anhydrase 1 (Homo sapiens, UniProt P00915); assay: Inhibition of human CA1 by stopped-flow carbon dioxide hydration assay
Sequence of Carbonic anhydrase 1 (P00915 whole entry): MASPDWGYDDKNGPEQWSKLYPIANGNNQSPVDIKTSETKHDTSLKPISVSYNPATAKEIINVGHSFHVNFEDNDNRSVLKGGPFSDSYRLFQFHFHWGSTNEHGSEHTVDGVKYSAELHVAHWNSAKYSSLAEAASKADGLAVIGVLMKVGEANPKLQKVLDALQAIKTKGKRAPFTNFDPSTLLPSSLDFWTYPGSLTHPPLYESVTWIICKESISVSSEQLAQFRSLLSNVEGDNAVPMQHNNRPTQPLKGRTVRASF

Carbonic anhydrase 2 = Carbonic anhydrase 2 (Homo sapiens, UniProt P00918); assay: Inhibition of human CA2 by stopped-flow carbon dioxide hydration assay
Carbonic anhydrase 9 = Carbonic anhydrase 9 (Homo sapiens, UniProt Q16790); assay: Inhibition of human CA9 by stopped-flow carbon dioxide hydration assay
Carbonic anhydrase 12 = Carbonic anhydrase 12 (Homo sapiens, UniProt O43570); assay: Inhibition of human CA12 by stopped-flow carbon dioxide hydration assay
Sequence of Carbonic anhydrase 12 (O43570 whole entry): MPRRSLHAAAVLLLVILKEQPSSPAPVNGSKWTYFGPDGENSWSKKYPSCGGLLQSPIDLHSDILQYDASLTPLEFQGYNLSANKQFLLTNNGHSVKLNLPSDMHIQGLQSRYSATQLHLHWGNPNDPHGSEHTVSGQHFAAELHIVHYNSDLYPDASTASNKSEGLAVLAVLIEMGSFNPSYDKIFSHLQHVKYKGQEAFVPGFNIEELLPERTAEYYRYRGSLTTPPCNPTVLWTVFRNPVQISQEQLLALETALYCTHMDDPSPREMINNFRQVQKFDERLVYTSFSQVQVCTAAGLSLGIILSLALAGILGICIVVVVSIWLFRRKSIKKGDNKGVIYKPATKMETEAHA

WI-38 = assay: Cytotoxicity against human WI-38 cells assessed as reduction in cell viability after 72 hrs by SRB assay; assay type: cell-based; settings: WI-38, 72 h
A549 [3] = assay: Antiproliferative activity against human A549 cells assessed as inhibition of cell growth at 100 microM measured after 72 hrs by SRB assay; assay type: functional
HepG2 [4] = assay: Antiproliferative activity against human HepG2 cells assessed as inhibition of cell growth at 100 microM measured after 72 hrs by SRB assay; assay type: functional
MCF7 [5] = assay: Antiproliferative activity against human MCF-7 cells assessed as inhibition of cell growth at 100 microM measured after 72 hrs by SRB assay; assay type: functional
MCF7 [6] = assay: Antiproliferative activity against human MCF-7 cells assessed as cell growth inhibition measured after 72 hrs by SRB assay; assay type: functional, cell-based; settings: MCF7, 72 h
[7] = Toxicity in ip dosed BALB/c mouse measured for 3 days; assay type: organism-based; settings: in vivo, time 3 day
MCF7 [8] = assay: Antitumor activity against human MCF7 cells xenografted in BALB/c mouse assessed as reduction in tumor volume at 23 mg/kg, ip administered thrice a week for 28 days by vernier caliper analysis; assay type: functional; settings: time 28 day
[9] = Toxicity in BALB/c mouse xenografted with human MCF7 cells assessed as body weight at 23 mg/kg, ip administered thrice a week for 28 days measured on day 28 (reference value: 29.8 gms); assay type: organism-based; settings: in vivo, 672 h, time 28 day
MCF7 [10] = assay: Antiproliferative activity against human MCF-7 cells assessed as inhibition of cell growth at 100 microM measured after 72 hrs by SRB assay relative to celecoxib; assay type: functional; set-up: scale not given: the % may be the effect or the level left
A549 [11] = assay: Antiproliferative activity against human A549 cells assessed as cell growth inhibition measured after 72 hrs by SRB assay; assay type: functional, cell-based; settings: A549, 72 h
HepG2 [12] = assay: Antiproliferative activity against human HepG2 cells assessed as cell growth inhibition measured after 72 hrs by SRB assay; assay type: functional, cell-based; settings: HepG2, 72 h
A549 [13] = assay: Induction of apoptosis in human A549 cells assessed as early apoptotic cells at IC50 measured after 24 hrs by annexin V-FITC staining based flow cytometry (reference value: 0.63%); assay type: functional
A549 [14] = assay: Induction of apoptosis in human A549 cells assessed as late apoptotic cells at IC50 measured after 24 hrs by annexin V-FITC staining based flow cytometry (reference value: […]); assay type: functional
A549 [15] = assay: Induction of apoptosis in human A549 cells assessed as necrotic cells at IC50 measured after 24 hrs by annexin V-FITC staining based flow cytometry (reference value: 1.01%); assay type: functional
A549 [16] = assay: Induction of apoptosis in human A549 cells assessed as caspase-9 expression at IC50 by ELISA (reference value: […] +/- […] ng/ml); assay type: functional
A549 [17] = assay: Induction of apoptosis in human A549 cells assessed as fold change in caspase-9 expression at IC50 by ELISA relative to control; assay type: functional
A549 [18] = assay: Induction of apoptosis in human A549 cells assessed as Bax expression at IC50 by ELISA (reference value: 42.16 +/-6.2 pg/ml); assay type: functional
A549 [19] = assay: Induction of apoptosis in human A549 cells assessed as fold change in Bax expression at IC50 by ELISA relative to control; assay type: functional
A549 [20] = assay: Induction of apoptosis in human A549 cells assessed as Bcl2 expression at IC50 by ELISA (reference value: 9.04 +/-0.1 ng/ml); assay type: functional
A549 [21] = assay: Induction of apoptosis in human A549 cells assessed as fold change in Bcl2 expression at IC50 by ELISA relative to control; assay type: functional
HT-29 = assay: Cytotoxicity against human HT-29 cells assessed as reduction in cell viability incubated for 24 hrs by MTS assay; assay type: functional, cell-based; settings: HT-29, 24 h
A549 [22] = assay: Induction of cell cycle arrest in human A549 cells assessed as accumulation at pre-G1 phase at IC50 measured after 24 hrs by propidium iodide/RNase staining based flow cytometry (reference value: 1.93%); assay type: functional
A549 [23] = assay: Induction of cell cycle arrest in human A549 cells assessed as accumulation at G0/G1 phase at IC50 measured after 24 hrs by propidium iodide/RNase staining based flow cytometry (reference value: 58.26%); assay type: functional
A549 [24] = assay: Induction of cell cycle arrest in human A549 cells assessed as accumulation at G2/M phase at IC50 measured after 24 hrs by propidium iodide/RNase staining based flow cytometry (reference value: 9.86%); assay type: functional
A549 [25] = assay: Induction of cell cycle arrest in human A549 cells assessed as accumulation at S phase at IC50 measured after 24 hrs by propidium iodide/RNase staining based flow cytometry (reference value: 31.88%); assay type: functional
A549 [26] = assay: Induction of apoptosis in human A549 cells assessed as total apoptotic cells at IC50 measured after 24 hrs by Annexin V-FITC/propidium iodide staining based flow cytometry (reference value: 0.92%); assay type: functional

Structure (SMILES): Cc1c(-c2nn(-c3ccccc3)cc2/C=N/O)nnn1-c1ccc(C(=O)O)cc1
IC50 [1]: 12.4 µM | IC50 [2]: 1.29 µM | Ki (Carbonic anhydrase 1): 4.63 µM | Ki (Carbonic anhydrase 2): 0.239 µM | Ki (Carbonic anhydrase 9): 2.25 µM | Ki (Carbonic anhydrase 12): 0.154 µM | IC50 (WI-38): 379 µM | inhibition at 100 µM (A549 [3]): 12.3% | inhibition at 100 µM (HepG2 [4]): 7.68% | inhibition at 100 µM (MCF7 [5]): 83.4% | IC50 (MCF7 [6]): 3.2 µM | LD50 at 72 h [7]: 61.7 mg/kg | Activity (MCF7 [8]): 0.45 cm3 | Activity [9]: 27.3 g | Activity (MCF7 [10]): 80%

IC50 [1]: 12.4 µM | IC50 [2]: 1.34 µM | Ki (Carbonic anhydrase 1): 0.252 µM | Ki (Carbonic anhydrase 2): 0.0141 µM | Ki (Carbonic anhydrase 9): 7.89 µM | Ki (Carbonic anhydrase 12): 0.0134 µM | IC50 (A549 [11]): 28.5 µM | IC50 (HepG2 [12]): 72.4 µM
Structure (SMILES): C/C(=N\Nc1nc(-c2ccc(Cl)cc2)cs1)c1nnn(-c2ccc(S(N)(=O)=O)cc2)c1C
IC50 (WI-38): 388 µM | inhibition at 100 µM (A549 [3]): 68.1% | inhibition at 100 µM (HepG2 [4]): 59% | inhibition at 100 µM (MCF7 [5]): 37.2% | Activity (A549 [13]): 9.15% | Activity (A549 [14]): 19.59% | Activity (A549 [15]): 2.48% | Activity (A549 [16]): 12.69 ng/mL | fold change (FC) (A549 [17]): 10.56 | Activity (A549 [18]): 329.7 pg/mL | fold change (FC) (A549 [19]): 7.82 | Activity (A549 [20]): 4.95 ng/mL | fold change (FC) (A549 [21]): 0.51 | IC50 (HT-29): 87.4 µM | Activity (A549 [22]): 31.22% | Activity (A549 [23]): 31.61% | Activity (A549 [24]): 44.85% | Activity (A549 [25]): 23.54% | Activity (A549 [26]): 28.74%
